Reference: patent US12103924B2, “Mitogen-activated protein kinase kinase (MEK) degradation compounds and methods of use” (Icahn School of Medicine at Mount Sinai, priority 2020, dated 2024)

Experiments:
MEK2 = biological target: T1, MEK2 (Homo sapiens, UniProt P36507); test: HotSpot kinase inhibition assay, MEK2; type: biochemical; details: MEK2 150 nM, ERK K52R substrate, 33P-ATP, normalized with DMSO
T1 construct: purchased Thermo Fisher Scientific PV3615

MEK1/2 [1] = test: Western blot of MEK1/2 protein levels in HT-29 cells; type: cell-based; details: for MEK1 and MEK2 protein levels, time-dependent / MEK1 and MEK2 protein levels, concentration-dependent: HT-29 cells; for MEK1 and MEK2 protein levels, time-dependent: 0.1 μM or 0.3 μM, harvested at indicated time points; for MEK1 and MEK2 protein levels, concentration-dependent: serial dilution, western blot
Method: Compound concentrations are 0.3 μM, 1 μM and 3 μM.
(§3) The indicated protein levels were determined by Western blots.
(§4) The sample was centrifuged at 12,000 g for 10 min at 4° C. to get supernatant as cell lysate. Protein concentrations were quantified using Pierce rapid gold BCA protein assay kit.

MEK1 and MEK2 proteins = test: Global proteome analysis of HT-29 cells; type: cell-based, human
Method: […] […] P values were calculated from the data of two technical replicates. (A) DMSO compared to CPD-031 treated samples; (B) CPD-034 compared to CPD-031 treated samples; (C) DMSO compared to CPD-034 treated samples.
Proteins outside the significance lines were labeled with pink or purple color (FDR=0.05, S0=1). P values were calculated from the data of two technical replicates.
Protein Extraction and Digestion. Cells with indicated treatments were harvested and lysed in lysis buffer (6 M guanidine hydrochloride, 100 mM Tris-HCl pH 8.0). Sonication (5 s on, 5 s off, 2×30 s) was performed to shear genome DNA. Lysate were centrifugated for 30 min at 3,500 g at 4° C. and the supernatant were transferred to a clean tube, diluted 50% with Milli-Q H2O, then precipitated by addition of cold acetone (four times the original volume), and placed at −20° C. overnight. Precipitated proteins were brought down at 20,000 g at 4° C. for 10 min, and washed with cold acetone after discarding the supernatant. The pellet was air-dried at RT for 5 min and solubilized with 50 mM Tris-HCl (PH 8.0), 8 M urea. Protein concentration was determined (BCA assay) and protein was reduced with 5 mM DTT (dithiothreitol), alkylated with 15 mM IAA (iodoacetamide) in the dark, then diluted with buffer 25 mM Tris (pH 8.0) and 1 mM CaCl2 (three times the original volume). The final urea concentration is 2 M. Trypsin was added into protein solution with 1:100 ratio (trypsin:protein), and digested 12-16 h or overnight at RT.
Mass Spectrometry Analysis. Peptides were cleaned up by C18 stage tips and the concentration was determined (Peptide assay, 23275, Thermo Fisher Scientific). The clean peptides were dissolved in 0.1% formic acid and analyzed on a Q-Exactive HF-X coupled with an Easy nanoLC 1200 (Thermo Fisher Scientific, San Jose, CA). 0.5 μg of peptides were loaded onto an Acclain PepMap RSLC C18 Column (250 mm×75 μm ID, C18, 2 μm, Thermo Fisher Scientific). […] A linear gradient of 5 to 30% buffer B over 110 min was executed at a 300 nl/min flow rate followed a ramp to 100% B in 5 min, and 15-min wash with 100% B, where buffer A was aqueous 0.1% formic acid, and buffer B was 80% acetonitrile and 0.1% formic acid.
LC-MS experiments were performed in a data-dependent mode with full MS (externally calibrated to a mass accuracy of <5 ppm and a resolution of 60,000 at m/z 200) followed by high energy collision-activated dissociation-MS/MS of the top 20 most intense ions with a resolution of 15,000 at m/z 200. High energy collision-activated dissociation-MS/MS was used to dissociate peptides at a normalized collision energy of 27 eV in the presence of nitrogen bath gas atoms. Dynamic exclusion was 30.0 seconds. Each sample was subjected to two technical LC-MS replicates.
MS Data Analysis. Mass spectra processing and peptide identification were performed on the Andromeda search engine in MaxQuant software (Version 1.6.0.16) against the human UniProt database (UP000005640). All searches were conducted with a defined modification of cysteine carbamidomethylation, with methionine oxidation and protein amino-terminal acetylation as dynamic modifications. Peptides were confidently identified using a target-decoy approach with a peptide false discovery rate (FDR) of 1% and a protein FDR of 1%. A minimum peptide length of 7 amino acids was required, maximally two missed cleavages were allowed, initial mass deviation for precursor ion was up to 7 ppm, and the maximum allowed mass deviation for fragment ions was 0.5 Da. Data processing and statistical analysis were performed on Perseus (Version 1.6.0.7). Protein quantitation was performed on duplicate runs, and a two-sample t-test statistics was used to report statistically significant expression fold-changes.

MEK1 = biological target: T2, MEK1 (Homo sapiens, UniProt Q02750); test: HotSpot kinase inhibition assay, MEK1; type: biochemical; details: MEK1 100 nM, ERK K52R substrate, 33P-ATP, normalized with DMSO
T2 construct: purchased Thermo Fisher Scientific PV3303

pMEK and pERK [2] = test: Western blot of MEK and ERK phosphorylation in HT-29 cells; type: cell-based; details: for phosphorylation of MEK and ERK / pERK signaling, time-dependent / phosphorylation of MEK and ERK proteins, concentration-dependent: HT-29 cells; for phosphorylation of MEK and ERK / pERK signaling, time-dependent: 0.1 μM or 0.3 μM, harvested at indicated time points; for phosphorylation of MEK and ERK proteins, concentration-dependent: serial dilution, western blot
pMEK and pERK [3] = test: Western blot of MEK and ERK phosphorylation in SK-MEL-28 cells; details: for phosphorylation of MEK and ERK / pERK signaling, time-dependent / phosphorylation of MEK and ERK proteins, concentration-dependent: SK-MEL-28 cells; for phosphorylation of MEK and ERK / pERK signaling, time-dependent: 0.1 μM or 0.3 μM, harvested at indicated time points; for phosphorylation of MEK and ERK proteins, concentration-dependent: serial dilution, western blot
MEK1/2 [4] = test: Rescue experiments (pretreatment) in HT-29 cells, western blot; type: cell-based; details: 2 h pretreatment with PD0325901 (1 μM), MG-132 (3 μM), MLN4924 (1 μM) or VH 032 (10 μM), then 10 h with 0.3 μM CPD-031
Method: The cells were incubated for another 8 h.
as §4

HT-29 cells [5] = test: MTT cell viability assay, HT-29; type: cell-based
Method: MTT assay was conducted for HT-29 cells after 3 d treatment with indicated compounds with serial dilutions.
MTT assay was conducted for HT-29 (A) and SK-MEL-28 (B) cells after 3 d treatment with DMSO or indicated compounds with serial dilutions. Clonogenic assay was performed in HT-29 (C) and SK-MEL-28 (D) cells for 14 d treatment with DMSO or indicated compounds with 10, 30 and 100 nM, in duplicate, respectively. Cells were then stained by crystal violet.
HT-29 or SK-MEL-28 cells (300 cells per well) were seeded in 12-well plates. After 20 h, cells were treated with DMSO or indicated concentrations of compounds in duplicate for two weeks. Medium containing indicated compounds was changed every 3 days. Cells were then fixed and stained with the solution containing 6% (v/v) glutaraldehyde (G5882, Sigma-Aldrich) and 0.5% (w/v) crystal violet for 1 h. To remove the background color, the plates with stained cells were immersed in running water until clear colonies were observed. The plates were dried at RT. The staining images were obtained with Epson Perfection V600 Photo.

MEK1/2 [6] = test: Rescue experiments (pretreatment) in SK-MEL-28 cells, western blot; type: cell-based; details: 2 h pretreatment with PD0325901 (1 μM), MG-132 (3 μM), MLN4924 (1 μM) or VH 032 (10 μM), then 10 h with 0.3 μM CPD-031
SK-MEL-28 cells [7] = test: MTT cell viability assay, SK-MEL-28; type: cell-based; details: MTT 3 d, clonogenic assay 14 d at 10, 30 and 100 nM
Method: Clonogenic assay was performed in HT-29 (C) and SK-MEL-28 (D) cells for 14 d treatment with DMSO or indicated compounds with 10, 30 and 100 nM, in duplicate, respectively. Cells were then stained by crystal violet.
(§1) Cells (2000 cells per well) were seeded into 96-well microplates. After 20 h, cells were treated with 0.1% DMSO or indicated serial dilutions of compounds in duplicate or triplicate for 3 days. Cell viability was tested using MTT (M6494, Thermo Fisher Scientific) or WST-8 reagent (CK04, Dojindo). Briefly, 12 mM MTT was prepared in PBS or WST-8 reagent was warmed up to room temperature. 20 μL MTT or CCK-8 was then added to each well and the plates were kept in incubator at 37° C. for 3 h in the dark. For the WST-8 assay, signal was obtained after the incubation. For the MTT assay, cell medium was replaced with 200 μL of DMSO after the incubation, and then cell plates were kept at 37° C. for another 30 min. Absorbance signals for MTT and WST-8 were read at 540 nm and 450 nm respectively, with 690 nm as reference performed with Infinite F PLEX plate reader (TECAN, Morrisville, NC, USA). GI50 values were analyzed using GraphPad Prism 8 from the data of at least three independent experiments.
HT-29 or SK-MEL-28 cells (300 cells per well) were seeded in 12-well plates. After 20 h, cells were treated with DMSO or indicated concentrations of compounds in duplicate for two weeks. […]

MEK1/2 [8] = test: Western blot of MEK1/2 protein levels in SK-MEL-28 cells; details: for MEK1 and MEK2 protein levels, time-dependent / MEK1 and MEK2 protein levels, concentration-dependent: SK-MEL-28 cells; for MEK1 and MEK2 protein levels, time-dependent: 0.1 μM or 0.3 μM, harvested at indicated time points; for MEK1 and MEK2 protein levels, concentration-dependent: serial dilution, western blot
Method: as §3, §4

SUDHL1 cells = test: WST-8 cell viability assay, SUDHL1; type: cell-based; details: WST-8, 3 d
Method: as §1

H3122 cells = test: WST-8 cell viability assay, H3122; type: cell-based; details: WST-8, 3 d
Method: as §1

HT-29 cells [9] = test: WST-8 cell viability assay, HT-29; type: cell-based
Method: (§2) Cells were fixed and stained by crystal violet.
as §1

SK-MEL-28 cells [10] = test: WST-8 cell viability assay, SK-MEL-28; type: cell-based
Method: as §2, §1

[11] = HT-29 cells, 0.1, 0.3, or 1 μM, 24 h
[12] = SK-MEL-28 cells, 0.1, 0.3, or 1 μM, 24 h

T2 sequence (Q02750 whole entry): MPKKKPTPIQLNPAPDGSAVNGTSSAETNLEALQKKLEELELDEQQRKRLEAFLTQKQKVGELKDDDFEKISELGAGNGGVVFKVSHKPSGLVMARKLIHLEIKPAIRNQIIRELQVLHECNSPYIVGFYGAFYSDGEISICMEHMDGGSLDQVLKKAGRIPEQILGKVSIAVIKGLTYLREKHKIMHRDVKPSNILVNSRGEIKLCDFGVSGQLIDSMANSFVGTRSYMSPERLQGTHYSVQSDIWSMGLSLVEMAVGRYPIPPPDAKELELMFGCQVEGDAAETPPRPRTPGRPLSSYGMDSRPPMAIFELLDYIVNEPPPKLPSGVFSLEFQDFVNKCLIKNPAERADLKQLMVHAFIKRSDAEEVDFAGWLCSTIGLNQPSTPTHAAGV
T1 sequence (P36507 whole entry): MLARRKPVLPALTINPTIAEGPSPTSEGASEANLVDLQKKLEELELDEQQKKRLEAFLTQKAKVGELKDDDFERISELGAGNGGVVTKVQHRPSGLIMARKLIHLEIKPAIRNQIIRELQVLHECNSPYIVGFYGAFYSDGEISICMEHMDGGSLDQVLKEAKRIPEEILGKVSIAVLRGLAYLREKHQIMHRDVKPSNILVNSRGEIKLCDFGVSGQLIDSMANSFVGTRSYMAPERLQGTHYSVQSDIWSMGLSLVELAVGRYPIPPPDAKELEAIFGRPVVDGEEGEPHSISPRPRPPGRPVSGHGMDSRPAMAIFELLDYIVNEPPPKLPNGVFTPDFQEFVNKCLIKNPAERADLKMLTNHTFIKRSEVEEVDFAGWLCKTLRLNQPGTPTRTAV

Structure (SMILES) | MEK1 and MEK2 protein levels, time-dependent (MEK1/2 [1]) | MEK1 and MEK2 protein levels, concentration-dependent (MEK1/2 [1]; 24 h) | phosphorylation of MEK and ERK / pERK signaling, time-dependent (pMEK and pERK [2]) | phosphorylation of MEK and ERK proteins, concentration-dependent (pMEK and pERK [2]; 24 h) | phosphorylation of MEK and ERK / pERK signaling, time-dependent (pMEK and pERK [3]) | phosphorylation of MEK and ERK proteins, concentration-dependent (pMEK and pERK [3]; 24 h) | MEK1 and MEK2 protein levels, time-dependent (MEK1/2 [8]) | MEK1 and MEK2 protein levels, concentration-dependent (MEK1/2 [8]; 24 h) | growth inhibition compared with AZ compound (SUDHL1 cells) | growth inhibition compared with AZ compound (H3122 cells) | further results
Cc1ncsc1-c1ccc([C@H](C)NC(=O)[C@@H]2C[C@@H](O)CN2C(=O)[C@@H](NC(=O)CCCCCCCCCCNCCCONC(=O)c2ccc(F)c(F)c2Nc2ccc(I)cc2F)C(C)(C)C)cc1 [CPD-031, (2S,4R)-1-((S)-20-(tert-butyl)-1-(3,4-difluoro-2-((2-fluoro-4-iodophenyl)amino)phenyl)-1,18-dioxo-3-oxa-2,7,19-triazahenicosan-21-oyl)-4-hydroxy-N—((S)-1-(4-(4-methylthiazol-5-yl)phenyl)ethyl)pyrrolidine-2-carboxamide] | reduced | reduced | inhibited | inhibited | inhibited | inhibited | reduced | reduced |  |  | MEK2 kinase activity (MEK2): inhibited; MEK1 and MEK2 protein levels (MEK1/2 [1]; [11]): reduced; protein levels in the global proteomic study (MEK1 and MEK2 proteins; 10 h, 0.1 μM, versus 0.1% DMSO): selectively degraded; MEK1 kinase activity (MEK1): inhibited; inhibition of MEK and ERK phosphorylation compared with CPD-034 (pMEK and pERK [2]; [11]): more potent; inhibition of MEK and ERK phosphorylation compared with CPD-034 (pMEK and pERK [3]; [12]): more potent; potency at degradation of MEK1 and MEK2 and inhibition of MEK phosphorylation after pretreatment (MEK1/2 [4]): significantly impaired; GI50 (HT-29 cells [5]; Homo sapiens, 72 h, MTT assay, 3 d treatment, serial dilutions): 0.13 ± 0.04 µM; inhibition of the growth of cells compared with CPD-034 (HT-29 cells [5]; MTT 3 d, clonogenic assay 14 d at 10, 30 and 100 nM): more potent; potency at degradation of MEK1 and MEK2 and inhibition of MEK phosphorylation after pretreatment (MEK1/2 [6]): significantly impaired; inhibition of the growth of cells compared with CPD-034 (SK-MEL-28 cells [7]): more potent; MEK1 and MEK2 protein levels (MEK1/2 [8]; [12]): reduced
Cc1ncsc1-c1ccc([C@H](C)NC(=O)[C@@H]2C[C@@H](O)CN2C(=O)[C@@H](NC(=O)CCCCCCCCCCCNCCCCONC(=O)c2ccc(F)c(F)c2Nc2ccc(I)cc2F)C(C)(C)C)cc1 [CPD-038, (2S,4R)-1-((S)-22-(tert-butyl)-1-(3,4-difluoro-2-((2-fluoro-4-iodophenyl)amino)phenyl)-1,20-dioxo-3-oxa-2,8,21-triazatricosan-23-oyl)-4-hydroxy-N—((S)-1-(4-(4-methylthiazol-5-yl)phenyl)ethyl)pyrrolidine-2-carboxamide] | degrade |  | inhibit |  | inhibit |  | degrade |  | more potent | more potent | protein levels in the global proteomic study (MEK1 and MEK2 proteins; 8 h, 0.1 μM CPD-038 or CPD-052, 0.3 μM CPD-051 or CPD-097, versus 0.1% DMSO): selectively degraded
Cc1ncsc1-c1ccc([C@H](C)NC(=O)[C@@H]2C[C@@H](O)CN2C(=O)[C@@H](NC(=O)CCCCCCCCCCN(C)CCCONC(=O)c2ccc(F)c(F)c2Nc2ccc(I)cc2F)C(C)(C)C)cc1 [CPD-037, (2S,4R)-1-((S)-20-(tert-butyl)-1-(3,4-difluoro-2-((2-fluoro-4-iodophenyl)amino)phenyl)-7-methyl-1,18-dioxo-3-oxa-2,7,19-triazahenicosan-21-oyl)-4-hydroxy-N—((S)-1-(4-(4-methylthiazol-5-yl)phenyl)ethyl)pyrrolidine-2-carboxamide] | degrade | degrade | inhibit | inhibit | inhibit | inhibit | degrade | degrade | more potent | more potent | growth of cells (HT-29 cells [9]; WST-8 3 d serial dilutions, clonogenic assay 10 d): significantly suppressed; growth inhibition compared with AZ compound (HT-29 cells [9]; WST-8, 3 d): more potent; growth of cells (SK-MEL-28 cells [10]; WST-8 3 d serial dilutions): significantly suppressed; growth inhibition compared with AZ compound (SK-MEL-28 cells [10]; WST-8, 3 d): more potent
